From PMC13021292, “Safety, tolerability and pharmacokinetics of DNDI‐6148, a novel agent for leishmaniasis: A randomized, controlled, single ascending dose study in healthy participants” (British Journal of Clinical Pharmacology, 2025)

Key:
[1] = at 1 μM; cited from earlier work
[2] = test system: L. infantum; conditions: 25 mg/kg BID for five or ten days; cited from earlier work
[3] = set-up: method as in unpublished data; conditions: non‐clinical studies ref unpublished data; cited from earlier work
[4] = Plasma CRP and TNFα pre- and post-dose (exploratory inflammation markers); assay type: in vivo, human; set-up: CRP plasma concentration, Mean / TNFα plasma concentration, Mean: unit not given here; conditions: for CRP change from pre-dose, Mean / CRP change from pre-dose, Median / CRP plasma concentration, Mean / CRP plasma concentration, Median / TNFα change from pre-dose, Mean / TNFα plasma concentration, Mean / TNFα plasma concentration, Median / TNFα change from pre-dose, Median: 6 h post-dose (D1-T6H)
Description: Recruitment was temporarily interrupted on 16 March 2020 due to confinement measures related to the COVID‐19 outbreak in France. The study resumed on 17 August 2020, allowing for the completion of recruitment for cohorts 2, 3 and 4. Additionally, four participants were included in cohort 5 before suspension of the investigational product (IP) administration on 30 January 2021 as a precaution to assess emerging unexpected data in a non‐clinical Fertility and Early Embryonic Development study. The protocol was further amended to include evaluation of plasma concentrations of C‐reactive protein (CRP) and of tumour necrosis factor alpha (TNFα) pre and post‐dose (6 h) as exploratory markers of possible inflammation. Subsequent cohorts were completed up to the 380 mg dose level (cohort 8) without further interruption of the study.
Exploratory endpoints included ECG parameters compared to baseline and placebo; the exploratory identification of DNDI‐6148 metabolites; and, for the last four participants of the 160 mg cohort and the 220 mg, 300 mg and 380 mg cohorts, the exploratory evaluation of plasma concentrations of CRP and TNFα pre‐ and post‐dose.
Safety was assessed by monitoring AEs throughout the study. Other safety monitoring included 12‐lead ECG recordings, measurement of vital signs, physical and neurological examinations, haematology, blood biochemistry and urinalysis and, for the last four participants of the 160 mg cohort and onwards, CRP and TNFα.

For `Cc1c(C(=O)Nc2ccc3c(c2)B(O)OC3)nnn1-c1ccccn1` [DNDI‐6148], the CLint in hepatocytes [1] is given as 0.5 μL/min/10^6 cells, the “efficacy by oral route in L. infantum hamster model of VL” value [2] is given as “demonstrated efficacy” and the “blood–brain barrier crossing” value [3] is given as “cross the blood–brain barrier”. The “CRP change from pre-dose, Mean” value ([4]; 160 mg, n 3) was -0.03, the “CRP change from pre-dose, Median” value ([4]; 160 mg, n 3) was 0.00 and the “CRP plasma concentration, Mean” value ([4]; 160 mg, n 3) was 0.80. The “CRP plasma concentration, Median” value ([4]; 160 mg, n 3) was 0.60, the “TNFα change from pre-dose, Mean” value ([4]; 160 mg, n 3) was 0.15 and the “TNFα plasma concentration, Mean” value ([4]; 160 mg, n 3) was 2.55. For the same molecule, the “TNFα plasma concentration, Median” value ([4]; 160 mg, n 3) was 2.58, the “CRP change from pre-dose, Mean” value ([4]; 220 mg, n 6) was -0.03 and the “CRP change from pre-dose, Median” value ([4]; 220 mg, n 6) was 0.00. For the same molecule, the “CRP plasma concentration, Mean” value ([4]; 220 mg, n 6) was 0.72, the “CRP plasma concentration, Median” value ([4]; 220 mg, n 6) was 0.60 and the “TNFα change from pre-dose, Mean” value ([4]; 220 mg, n 6) was -19.68. The “TNFα change from pre-dose, Median” value ([4]; 220 mg, n 6) was -15.26, the “TNFα plasma concentration, Mean” value ([4]; 220 mg, n 6) was 1.77 and the “TNFα plasma concentration, Median” value ([4]; 220 mg, n 6) was 1.74. For the same molecule, the “CRP change from pre-dose, Mean” value ([4]; 300 mg, n 6) was -0.13, the “CRP change from pre-dose, Median” value ([4]; 300 mg, n 6) was -0.15 and the “CRP plasma concentration, Mean” value ([4]; 300 mg, n 6) was 2.47. For the same molecule, the “CRP plasma concentration, Median” value ([4]; 300 mg, n 6) was 1.15, the “TNFα change from pre-dose, Mean” value ([4]; 300 mg, n 6) was -0.37 and the “TNFα change from pre-dose, Median” value ([4]; 300 mg, n 6) was 0.18. For the same molecule, the “TNFα plasma concentration, Mean” value ([4]; 300 mg, n 6) was 2.67, the “TNFα plasma concentration, Median” value ([4]; 300 mg, n 6) was 2.62 and the “TNFα change from pre-dose, Mean” value ([4]; 380 mg, n 4) was 0.33. For the same molecule, the “TNFα change from pre-dose, Median” value ([4]; 380 mg, n 4) was 0.32, the “TNFα plasma concentration, Mean” value ([4]; 380 mg, n 4) was 2.82 and the “TNFα plasma concentration, Median” value ([4]; 380 mg, n 4) was 2.75. The “CRP change from pre-dose, Mean” value ([4]; 380 mg, n 6) was -0.02, the “CRP change from pre-dose, Median” value ([4]; 380 mg, n 6) was 0.00 and the “CRP plasma concentration, Mean” value ([4]; 380 mg, n 6) was 0.87. For the same molecule, the “CRP plasma concentration, Median” value ([4]; 380 mg, n 6) was 0.60 and the “plasma CRP and TNFα concentrations post‐dose compared with pre‐dose” value ([4]; last four participants of 160 mg cohort and 220–380 mg cohorts) was “not significantly increased”.
